In patent US6624154B1, “Compositions and methods for treatment of hyperproliferative diseases” (Bristol-Myers Squibb Company, priority 1999, dated 2003):
pEC50: −log10 of the molar value. Values belong to the molecule of their own block, whether it stands above or below them.

How the values were obtained:
[1] = system: NB4 cells; experiment: NB4 cell maturation (morphology, NBT reduction, CD11c integrin expression); format: cell-based, human; details: for Induction of NB4 cell maturation/differentiation, agent alone: ATRA 1 μM, other agonists 0.2 μM, 8CPT-cAMP 100 μM, 72 h (NBT, morphology), 48 h (CD11c); for NB4 cell maturation in presence of 8CPT-cAMP: co-treatment with PKA agonist 8CPT-cAMP 100 μM
Description: Morphological features of NB4 cells in response to treatments (after 72 h). […] Nitroblue tetrazolium enzymatic reduction in retinoid-treated NB4 cells (after 72 h; percent of positive cells).
Cells and cultures. […] Essentially, cultures were established with log phase growing cells at concentration (10^5 ocell per ml) allowing exponential growth of untreated control cultures over 3 days without medium replenishment. […] Cultures were light-protected.
Morphological and functional cell maturation analysis. Cell morphology was analyzed after May-Grünwald staining. […] Morphology analysis and NBT reaction were performed after 72 h of treatment. At least 300 cells were analyzed for each treated culture.
Flow cytometry analysis of CD11c cell surface integrin. […] Briefly, after incubation (48 h), cells were washed in PBS and labeled with an anti-human CD11c FITC mouse monoclonal antibody (Becton-Dickinson). Cells were then washed twice in PBS and fixed in 1% paraformaldehyde/PBS solution. Cells were analyzed using a COULTER flow-cytometer.

[2] = system: NB4 cells; experiment: Cytokine expression in NB4 cells by RNAse protection assay; format: cell-based, human; details: for G-CSF expression: agent alone, 0, 24, 48 h
Description: (§1) Modulation of cytokine expression in NB4 cells was assessed by RNAse protection assays. […] For comparison the effect of vitamin D3 (“D3”) was studied also. […] The intact probes run on the same gel are shown on the left (L32 and GAPDH are the invariant internal controls used for calibration) and the positions of the protected fragments are indicated. […] Only the positions of the protected fragments are shown.
(§2) RPA analysis. Total RNA was extracted with the Trizol reagent (Gibco BRL). The ribonuclease protection assay was performed according to the supplier's instructions (Pharmingen, San Diego, Calif.). […] RNA (4 μg) and 6×10^5 cpm of labeled probes were used for hybridization. After RNAse treatments, the protected probes were resolved on a 5% urea-polyacrylamide-bis-acrylamide gel.

[3] = system: NB4-R2 cells; experiment: Cytokine expression in NB4-R2 cells by RNAse protection assay; format: cell-based, human
Description: as §1, §2

[4] = system: T47D; experiment: Lipid accumulation (Nile Red staining) in T47D breast cancer cells; format: cell-based, human; details: 7 days; for Increase of differentiation by addition of CPT-cAMP over RXR ligand alone: 1 μM RXR ligand plus 100 μM 8CPT-cAMP; for pEC50: RXR compound alone, Nile Red
Description: Staining Solution: Stock Solution (1 mg Nile red and 1 ml acetone were mixed thoroughly and stored, chilled and protected from light).
Staining. For Fluorescence Microscope, a drop of dye-glycerol solution was added to a slide and covered with a glass coverslip. After 5 minutes, the slide was viewed by fluorescence microscope, Excitation 450-500 nm, Emission>528 nm. For Flow Cytofluorometry, the medium was aspirated off from cells and washed with PBS two times (serum in the medium drained the dye out of the cells). Then the cells were trypsinized and washed with PBS to get rid of trypsin. The cells were spun down and resuspended in 1 ml PBS (1-2×10^6/ml). The stock dye was added directly to the cells suspension in PBS with 1:100 dilution, and incubated at room temperature for a minimal of 5 minutes, and the samples were analyzed immediately. For Fluorescence Spectra, the medium was removed from 96-well plates and the cells were washed once with PBS. […] Diluted dye in PBS (1:100 from stock) was added to the cells, incubated for 5 minutes, and the plate was read at Excitation 488nm with a 2-nm slit width, emission at 540 nm with a 20-nm slit width.
Cells. Breast cancer cell line T47D was obtained from American Type Culture Collection, Manassas, Va.

[5] = molecular target: T1, RARα-RXRα heterodimer (Homo sapiens, UniProt P10276+P19793); experiment: Transient transfection, RARα-RXRα heterodimer activity on DR5-tk-CAT reporter
T1 sequence (P10276 1-462): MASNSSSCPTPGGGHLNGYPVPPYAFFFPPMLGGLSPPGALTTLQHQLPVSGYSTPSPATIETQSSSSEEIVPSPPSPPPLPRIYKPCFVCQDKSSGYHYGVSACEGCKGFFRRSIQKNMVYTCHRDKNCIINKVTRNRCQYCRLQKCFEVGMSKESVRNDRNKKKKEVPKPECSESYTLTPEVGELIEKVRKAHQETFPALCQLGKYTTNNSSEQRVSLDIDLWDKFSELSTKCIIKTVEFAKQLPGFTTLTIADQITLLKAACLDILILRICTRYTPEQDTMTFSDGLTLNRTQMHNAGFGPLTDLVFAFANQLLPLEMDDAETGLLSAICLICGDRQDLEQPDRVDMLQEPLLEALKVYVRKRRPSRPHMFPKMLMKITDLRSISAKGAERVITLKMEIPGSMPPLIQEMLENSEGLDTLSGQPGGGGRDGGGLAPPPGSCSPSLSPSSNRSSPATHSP
T1 sequence (P19793 1-462): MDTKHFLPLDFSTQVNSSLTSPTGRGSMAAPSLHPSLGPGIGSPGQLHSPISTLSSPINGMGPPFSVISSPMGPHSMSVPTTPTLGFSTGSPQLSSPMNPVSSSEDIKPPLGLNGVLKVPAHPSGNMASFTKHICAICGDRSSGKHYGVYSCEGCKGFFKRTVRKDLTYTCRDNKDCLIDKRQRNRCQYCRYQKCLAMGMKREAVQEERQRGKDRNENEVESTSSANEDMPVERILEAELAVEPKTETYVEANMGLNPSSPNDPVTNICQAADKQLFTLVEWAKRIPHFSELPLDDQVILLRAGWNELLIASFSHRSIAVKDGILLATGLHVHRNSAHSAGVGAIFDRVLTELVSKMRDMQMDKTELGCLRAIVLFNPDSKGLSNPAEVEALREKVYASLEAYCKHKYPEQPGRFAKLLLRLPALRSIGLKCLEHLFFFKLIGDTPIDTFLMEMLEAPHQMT

SMILES: CC1=C(/C=C/C(C)=C/C=C/C(C)=C/C(=O)O)C(C)(C)CCC1 [ATRA, all-trans retinoic acid]
Induction of NB4 cell maturation/differentiation, agent alone [1]: induce maturation
IL8 and MCPI expression ([2]; agent alone): induced
M-CSF and IP10 expression ([2]; agent alone): induced
G-CSF expression [2]: incapable of stimulating G-CSF expression
IP 10, MCP1 or M-CSF expression in resistant cells [3]: unable to induce

SMILES: Nc1ncnc2c1nc(Sc1ccc(Cl)cc1)n2[C@@H]1O[C@@H]2COP(=O)([O-])O[C@H]2[C@H]1O.[Na+] [Compound 8CPT-cAMP, 8-(4-Chlorophenylthio)-adenosine-3′,5′-cyclic monophosphate, sodium salt]
Induction of NB4 cell maturation/differentiation, agent alone [1]: did not exhibit any differentiating activity
Lipid accumulation/differentiation, CPT-cAMP alone ([4]; 100 μM): No effect

SMILES: CC1(C)C(=O)C(C)(C)c2cc(C(=O)Nc3ccc(C(=O)O)cc3)ccc21 [Compound I, 4-[[(2,3-Dihydro-1,1,3,3-tetramethyl-2-oxo-1H-inden-5-yl)carbonyl]amino]benzoic acid]
Induction of NB4 cell maturation/differentiation, agent alone [1]: induce maturation
Growth of NB4 cells ([1]; agent alone): growth inhibited

SMILES: CC1(C)CC=C(c2cnc3ccccc3c2)c2cc(C(=O)Nc3ccc(C(=O)O)cc3)ccc21 [Compound II]
Effect on Compound I-induced differentiation ([1]; NB4 cells, antagonist 2 μM): abrogated
Effect on maturation induced by 9-cis RA ([1]; NB4 cells, antagonist 2 μM): decreased dramatically
Inhibition of NB4 maturation induced by SR11237 plus 8CPT-cAMP ([1]; antagonist 2 μM): not inhibited

Activity with RAR-RXR heterodimers on a DR5-based reporter ([5]; agent alone): nearly inactive
Effect on ATRA-induced transactivation of DR5-based reporter ([5]; with ATRA): synergized with
SMILES: C=C(c1ccc(C(=O)O)cc1)c1cc2c(cc1C)C(C)(C)CC=C2C(C)C [Compound V, 4-[1-[5,6-Dihydro-3,5,5-trimethyl-8-(1-methylethyl)-2-naphthalenyl]ethenyl]benzoic acid]
Induction of NB4 cell maturation/differentiation, agent alone [1]: did not exert any differentiative effect
NB4 cell maturation in presence of 8CPT-cAMP [1]: induced maturation with a potency similar to 9-cis RA

SMILES: CC1(C)CC=C(c2ccc(-c3ccccc3)cc2)c2cc(/C=C/c3ccc(C(=O)O)cc3)ccc21 [Compound VI]
Effect on Compound I-induced differentiation ([1]; NB4 cells, antagonist 2 μM): abrogated
Inhibition of NB4 maturation induced by SR11237 plus 8CPT-cAMP ([1]; antagonist 2 μM): not inhibited

SMILES: CN1c2ccc([N+](=O)[O-])cc2N=C(c2ccc(C(=O)O)cc2)c2cc3c(cc21)C(C)(C)CCC3(C)C [HX531]
NB4 cell maturation in presence of 8CPT-cAMP [1]: No crosstalk

SMILES: CC1(C)CCC(C)(C)c2cc(C3(c4ccc(C(=O)O)cc4)OCCO3)ccc21 [SR11237]
Induction of NB4 cell maturation/differentiation, agent alone [1]: completely inactive
NB4 cell maturation in presence of 8CPT-cAMP [1]: induced full maturation
Factor of synergy, G-CSF expression ([2]; SR11237 with 8CPT-cAMP): > 50 fold
G-CSF expression [2]: does not affect G-CSF expression
SCF, IL8 and MCPI expression ([2]; agent on its own): induced
Increase of differentiation by addition of CPT-cAMP over RXR ligand alone [4]: 20%
pEC50 [4]: 6.96
Transactivation of DR5-based reporter by coexpressed RAR and RXR in presence of the PKA agonist ([5]; with 8CPT-cAMP): did not observe any SR11237-induced transactivation

pEC50 ([4]; Homo sapiens, T47D, 168 h): 7.21
SMILES: C=C(c1ccc(C(=O)O)cc1)c1cc2c(cc1C)C(C)(C)CCC2(C)C [bexarotene]
Increase of differentiation by addition of CPT-cAMP over RXR ligand alone [4]: 20%

SMILES: C=C1CC[C@H](O)C/C1=C/C=C1\CCC[C@]2(C)[C@@H]([C@H](C)CCCC(C)C)CC[C@@H]12 [vitamin D3]
Induction of NB4 cell maturation/differentiation, agent alone [1]: inactive on its own
NB4 cell maturation in presence of 8CPT-cAMP [1]: moderate granulocytic maturation
Granulocytic maturation relative to the effect of SR11237 in presence of the PKA agonist ([1]; uM concentration, with 8CPT-cAMP): less than 20%
